SMILES strings stand for the structures. Counter-ions that a name gives are not always drawn.

One assay relates to Gastric fistula rat. Briefly: acute gastric fistula rat test (antisecretory screen). Type of assay: in vivo, Female Sprague-Dawley rats. Conditions: for inhibition in vivo at 20 mg/kg: intraduodenal, 20 mg/kg I.D., read-out: % Inhibition of gastric secretion; for ED50: po, 1 hr. How it is done:
The principal antisecretory screen is the acute gastric fistula rat test which is carried out as follows: Female Sprague-Dawley rats are used for this study. The weights range from 125-250 gms; however, weights in any given test have a range of ±20 gms. The rats are fasted 24 hours before testing, water is given ad lib. At the time of fasting, the rats are placed in individual cages with wide mesh bottoms. This eliminates the problem of cannibalism and coprophagia. On the day of testing, the rats are weighed beforehand to determine the weight range and to allow for even distribution. Surgery is carried out under light ether anesthesia. As soon as the rat is anesthetized, its teeth are removed using a small pinch pliers. A midline incision is made on the abdomen about 11/2 cm long and the stomach is exposed. If, at this point, the stomach is filled with food or fecal material, the rat is discarded except for orally administered rats. In this case, the stomach contents are gently squeezed into the duodenum. Using a 4-0 polyester fiber suture, a purse string stitch is placed on the fundic portion of the stomach taking care to avoid any blood vessels in the area. A small nick is made into the stomach in the center of the purse string and a cannula, consisting of a small vinyl tube with a flange on one end, is put into the stomach and the purse string is closed tightly around the flange. Immediately following this, the rat is dosed intraduodenally using a volume of 0.5 ml per 100 gm body weight. The abdominal wall and skin are closed simultaneously with three to four 18 mm wound clips. The rat is then placed in a box containing a longitudinal slit which allows the cannula to hang freely and the rat is able to move about unencumbered. At the completion of the procedure, the time is marked 0 minutes. The rat is allowed to stabilize for 30 minutes, at which time the collection tube is discarded and replaced with a clean collection tube to receive the gastric juice. Only a one-hour collection is made for a screening study. In evaluation studies, one- and two-hour collections are made. At the end of the study, the cannula is pulled out and the rat is sacrificed. The gastric contents collected are drained into a centrifuge tube and centrifuged to pack down the sediment. The volume is read and a 1 ml aliquot of the supernatant is put into a beaker containing distilled water and titrated to pH 7 using 0.01 N NaOH. Mean values are determined for volume, titratable acid and total acid output where volume equals total ml of gastric juice minus sediment, titratable acid (mEq/1) equals amount of 0.01 N NaOH needed to titrate the acid to pH 7 times 10 and total acid output equals titratable acid times volume. Results are reported in percent inhibition over control values. In studies using oral administration, the drugs are dosed in a volume of 1 ml per 100 gm body weight one hour before surgery (pretreatment equals 90 minutes). In subcutaneous studies, the drug may be given immediately after the surgical procedure (pretreatment equals 30 minutes) or after the 30-minute stabilization period when the collection tube is changed (pretreatment time equals 0 minutes). The volume used in subcutaneous studies is 0.2 ml per 100 gm body weight.

The test system of assay [1] is Spontaneously hypertensive rat. Put plainly: Rodent Antihypertensive Screen (arterial pressure and heart rate, aortic cannula). It counts as in vivo, adult spontaneously hypertensive rats (Charles River). Particulars: for Duration / Effect on heart rate / Max. decr. in MAP: spontaneously hypertensive rat; for antihypertensive activity compared with corresponding rearranged N-aryl-N'-(4,5-dihydro-1H-imidazol-2-yl) ureas IV: versus corresponding ureas IV. From the text:
This test evaluates compounds for effects on arterial pressure and heart rate. In this test, the arterial pressure of adult spontaneously hypertensive rats (Charles River) is monitored directly via an aortic cannula. Rats are anesthetized with an inhalation anesthetic (methoxyflurane). The left carotid artery is isolated and cannulated. The tip of the cannula is advanced to the aorta and the cannula is exteriorized behind the neck at the level of the scapula. Animals are placed in individual cages and allowed to recover from the anesthetic and are kept unrestrained. The arterial cannula is connected to the pressure transducer which is attached to the recorder. Heart rate is determined from the arterial pressure recording. The test compounds are administered either orally (p.o.) by gavage or by intraperitoneal (i.p.) injection. The arterial pressure and heart rate are monitored for a minumum of 24 hours. A test compound is considered to be active as an antihypertensive agent if the mean arterial pressure (MAP) indicates a fall of >15 mm of Hg. Each animal serves as his own control. The results of this test employing at least 3 rats per dose level for each compound and performed with various compounds of the present invention are shown in Table I.

With `Cl.NC1=NCCN1C(=O)Nc1c(Cl)cccc1Cl` [Example 1, 2-Amino-N-(2,6-dichlorophenyl)-4,5-dihydro-1H-imidazole-1-carboxamide Monohydrochloride], the inhibition in vivo at 20 mg/kg with Gastric fistula rat was 62%. In assay [1] (35 mg/kg p.o.), the Duration came out at 0.5 h, the “Effect on heart rate” value is listed as -48 beats/min and the “Max. decr. in MAP” value came to 32 mm Hg. Also, the “antihypertensive activity compared with corresponding rearranged N-aryl-N'-(4,5-dihydro-1H-imidazol-2-yl) ureas IV” value in assay [1] was “significantly less antihypertensive activity”.

`Cc1ccc(NC(=O)N2CCN=C2N)cc1` [Example 2, 2-Amino-4,5-dihydro-N-(4-methylphenyl)-1H-imidizole-1-carboxamide Monohydrochloride Hydrate (4:1)]: in the assay with Gastric fistula rat, the inhibition in vivo at 20 mg/kg amounted to 99% and it took a dose of 4.6 mg/kg to reach the 50% effect level (ED50). Besides, in assay [1] (35 mg/kg p.o.), the Duration stood at 6.0 h, the “Effect on heart rate” value is listed as -162 beats/min and the “Max. decr. in MAP” value is reported as 54 mm Hg. Moreover, the “antihypertensive activity compared with corresponding rearranged N-aryl-N'-(4,5-dihydro-1H-imidazol-2-yl) ureas IV” value in assay [1] was “more potent antihypertensive activity”.

On to `NC1=NCCN1C(=O)Nc1ccccc1Cl` [Example 3, 2-Amino-N-(2-chlorophenyl)-4,5-dihydro-1H-imidazole-1-carboxamide Monohydrochloride], for which the inhibition in vivo at 20 mg/kg with Gastric fistula rat is 82%. In assay [1] (35 mg/kg p.o.), the Duration came to 2.0 h, the “Effect on heart rate” value is -77 beats/min and the “Max. decr. in MAP” value was 35 mm Hg.

On to `COc1ccc(NC(=O)N2CCN=C2N)cc1OC` [Example 4, 2-Amino-N-(3,4-dimethoxyphenyl)-4,5-dihydro-1H-imidazole-1-carboxamide Monohydrochloride Hydrate (4:1)], for which, in assay [1] (100 mg/kg p.o.), the Duration is 11 h, the “Effect on heart rate” value is reported as -215 beats/min and the “Max. decr. in MAP” value worked out at 47 mm Hg.

For the compound `Cc1cccc(C)c1NC(=O)N1CCN=C1N.Cl` [Example 5, 2-Amino-N-(2,6-dimethylphenyl)-4,5-dihydro-1H-imidazole-1-carboxamide Monohydrochloride], the inhibition in vivo at 20 mg/kg in the assay with Gastric fistula rat stood at 88%. Also, in assay [1] (35 mg/kg p.o.), the Duration is 1.0 h, the “Effect on heart rate” value is reported as -27 beats/min and the “Max. decr. in MAP” value was found to be 23 mm Hg. Also, in assay [1], the “antihypertensive activity compared with corresponding rearranged N-aryl-N'-(4,5-dihydro-1H-imidazol-2-yl) ureas IV” value was “significantly less antihypertensive activity”.

Turning to `NC1=NCCN1C(=O)Nc1cc(Cl)cc(Cl)c1` [Example 6, 2-Amino-N-(3,5-dichlorophenyl)-4,5-dihydro-1H-imidazole-1-carboxamide Monohydrochloride Hydrate (16:1)], in the assay on Gastric fistula rat, the inhibition in vivo at 20 mg/kg came out at 75% and the ED50 amounted to 22.3 mg/kg. Further, in assay [1] (35 mg/kg p.o.), the Duration was determined as 1.0 h, the “Effect on heart rate” value is on record as -21 beats/min and the “Max. decr. in MAP” value stood at 22 mm Hg.

For the compound `Cl.NC1=NCCN1C(=O)Nc1cc(Cl)ccc1Cl` [Example 7, 2-Amino-N-(2,5-dichlorophenyl)-4,5-dihydro-1H-imidazole-1carboxamide Monohydrochloride], in assay [1] (35 mg/kg p.o.), the Duration was found to be 1.0 h, the “Effect on heart rate” value is given as -48 beats/min and the “Max. decr. in MAP” value was determined as 37 mm Hg.

For the compound `Cl.NC1=NCCN1C(=O)Nc1ccc(Cl)cc1Cl` [Example 9, 2-Amino-N-(2,4-dichlorophenyl)-4,5-dihydro-1H-imidazole-1carboxamide Monohydrochloride], in the assay on Gastric fistula rat, the inhibition in vivo at 20 mg/kg worked out at 71% and the 50% effect level (ED50) was put at a dose of 14.8 mg/kg. Moreover, in assay [1] (35 mg/kg p.o.), the Duration was 2.0 h, the “Effect on heart rate” value is recorded as -49 beats/min and the “Max. decr. in MAP” value is reported as 33 mm Hg.

With `Cl.NC1=NCCN1C(=O)Nc1cccc(Cl)c1Cl` [Example 10, 2-Amino-N-(2,3-dichlorophenyl)-4,5-dihydro-1H-imidazole-1-carboxamide Monohydrochloride], the inhibition in vivo at 20 mg/kg in the assay with Gastric fistula rat is 70%. In assay [1] (35 mg/kg p.o.), the Duration was 1.0 h, the “Effect on heart rate” value is reported as -66 beats/min and the “Max. decr. in MAP” value was 19 mm Hg.

On to `Cl.NC1=NCCN1C(=O)Nc1cccc(Cl)c1.O` [Example 11, 2-Amino-N-(3-chlorophenyl)-4,5-dihydro-1H-imidazole-1carboxamide Monohydrochloride Monohydrate], for which, in the assay on Gastric fistula rat, the inhibition in vivo at 20 mg/kg worked out at 77% and it took a dose of 14.2 mg/kg to reach the 50% effect level (ED50). Moreover, in assay [1] (35 mg/kg p.o.), the Duration came out at 0.5 h, the “Effect on heart rate” value is listed as -26 beats/min and the “Max. decr. in MAP” value is 20 mm Hg.

Take `Cl.NC1=NCCN1C(=O)Nc1c(Cl)cc(Cl)cc1Cl` [Example 12, 2-Amino-4,5-dihydro-N-(2,4,6-trichlorophenyl)-1H-imidazole-1-carboxamide Monohydrochloride]: the inhibition in vivo at 20 mg/kg with Gastric fistula rat was found to be 97%. Further, in assay [1] (35 mg/kg p.o.), the Duration amounted to 0.5 h, the “Effect on heart rate” value is listed as -39 beats/min and the “Max. decr. in MAP” value was determined as 18 mm Hg.

As for `Cl.NC1=NCCN1C(=O)Nc1ccc(C(F)(F)F)cc1` [Example 14, 2-Amino-4,5-dihydro-N-(4-trifluoromethylphenyl)-1H-imidazole-1-carboxamide Monohydrochloride], in the assay on Gastric fistula rat, the inhibition in vivo at 20 mg/kg was determined as 70% and the ED50 amounted to 35.5 mg/kg. In assay [1] (35 mg/kg p.o.), the Duration amounted to 5.0 h, the “Effect on heart rate” value is -98 beats/min and the “Max. decr. in MAP” value amounted to 50 mm Hg.

For the compound `Cc1cccc(Cl)c1NC(=O)N1CCN=C1N` [Example 15, 2-Amino-N-(2-chloro-6-methylphenyl)-4,5-dihydro-1H-imidazole-1-carboxamide Monohydrochloride Hydrate (8:1)], in the assay on Gastric fistula rat, the inhibition in vivo at 20 mg/kg turned out to be 77%.

`NC1=NCCN1C(=O)Nc1c(Br)cccc1Br` [Example 16, 2-Amino-4,5-dihydro-N-(2,6-dibromophenyl)-1H-imidazole-1-carboxamide Monohydrochloride]: the inhibition in vivo at 20 mg/kg with Gastric fistula rat turned out to be 64%.

Regarding `CCc1cccc(C)c1NC(=O)N1CCN=C1N.Cl` [Example 17, 2-Amino-4,5-dihydro-N-(2-ethyl-6-methylphenyl)-1H-imidazole-1carboxamide Monohydrochloride], in the assay with Gastric fistula rat, the inhibition in vivo at 20 mg/kg is 91% and the ED50 was found to be 24.5 mg/kg.

On to `COc1cccc(NC(=O)N2CCN=C2N)c1` [Example 19, 2-Amino-4,5-dihydro-N-(3-methoxyphenyl)-1H-imidazole-1carboxamide Monohydrochloride Hydrate (5:1)], for which, in the assay on Gastric fistula rat, the inhibition in vivo at 20 mg/kg was 74%.

On to `COc1ccc(NC(=O)N2CCN=C2N)cc1.Cl` [Example 20, 2-Amino-4,5-dihydro-N-(4-methoxyphenyl)-1H-imidazole-1carboxamide Monohydrochloride], for which, in assay [1] (35 mg/kg p.o.), the Duration was determined as 1.0 h, the “Effect on heart rate” value is reported as -38 beats/min and the “Max. decr. in MAP” value is on record as 16 mm Hg.

As for `NC1=NCCN1C(=O)Nc1ccccc1` [Example 23, 2-Amino-4,5-dihydro-N-phenyl-1H-imidazole-1-carboxamide Monohydrochloride Hydrate (5:3)], the inhibition in vivo at 20 mg/kg in the assay with Gastric fistula rat amounted to 92%.

In the case of `Cc1ccccc1NC(=O)N1CCN=C1N` [Example 24, 2-Amino-4,5-dihydro-N-(2-methylphenyl)-1H-imidazole-1-carboxamide Monohydrochloride], the inhibition in vivo at 20 mg/kg in the assay on Gastric fistula rat was determined as 65%.

As for `Cl.NC1=NCCN1C(=O)Nc1ccccc1C(F)(F)F` [Example 25, 2-Amino-4,5-dihydro-N-(2-trifluoromethylphenyl)-1H-imidazole-1-carboxamide Monohydrochloride], in assay [1] (35 mg/kg p.o.), the Duration came to 0.5 h, the “Effect on heart rate” value is listed as -21 beats/min and the “Max. decr. in MAP” value was 32 mm Hg.

The values above are taken from patent US4618682A, “2-amino-4,5-dihydro-1H-imidazole-1-carboxanilides” (McNeilab, Inc., priority 1985, dated 1986).
